Each structure is given as a SMILES string.

Series [1] relates to coagulase-negative Staphylococci (CNS). In words: Full-thickness porcine wounds infected with bacteria, treated with nitric oxide with or without oxygen (Example 1). Format: in vivo, pig.
Series [2] relates to Human head lice, permethrin(kdr)-resistant SF-HL strain. In words: Gas chamber bioassay on human head louse females and eggs (Example 13). The settings on record: for lice killed: adult female lice, 1 liter/minute. How it is done: The ability of nitric oxide or nitric oxide+oxygen to kill human head louse females and eggs was evaluated using gas chamber bioassay.
Human head lice from the permethrin(kdr)-resistant SF-HL strain were used in a nitric oxide gas bioassay to determine louse mortality at different exposure intervals. Adult female lice and aged eggs (6-8 day old) were used in all bioassays. The lice or eggs were placed in the bottom of a sterile disposable Petri dishes (60×20 mm) and left uncovered. The dish with lice or eggs was placed inside a polyethylene bag and the bag was taped shut with HY-TAPE® (HY-TAPE Intl., Patterson, N.Y.) to seal the chamber and to minimize the volume of gas inside the chamber. The treatments used were either nitric oxide, in combination with oxygen mixed in equal parts at a final concentration of 10,000 ppm nitric oxide and 20% oxygen, or a treatment with nitric oxide alone at 10,000 ppm in nitrogen both with a flow rate of 1 liter/minute. The gas tank was connected to the chamber with PVC tubing and plastic connectors. The nitric oxide, in combination with oxygen, was mixed in the tubing before the chamber inlet. The chamber outlet was also connected with PVC tubing and fed to a NO scrubber to trap the NO gas leaving the chamber. Additionally, tufts of human hair (blond and brown) were placed inside the chamber for a 30 minute exposure interval to nitric oxide+oxygen to assess discoloration of the hair for cosmetic purposes.

For series [3] the following is noted: mixture of 1000 ppm nitric oxide and 21% oxygen; cited from earlier work.
Series [4] deals with moderate-severe interdigital and/or moccasin-type tinea pedis. In words: Single-site placebo-controlled clinical trial of gaseous nitric oxide in moderate-severe tinea pedis (Example 11). It is filed as in vivo, human. Conditions: 1% nitric oxide. On the procedure: To evaluate the effectiveness of gaseous nitric oxide treatment against moderate-severe interdigital and/or moccasin-type tinea pedis, a single-site, placebo-controlled clinical trial treating≧50 evaluable human patients with moderate-severe interdigital tinea pedis was conducted. […] The foot of each patient was fitted with a flexible, plastic boot-like enclosure that was sealed at the mid-calf (see, for example, FIG. 19) and the foot was bathed with 1% gaseous nitric oxide in nitrogen, or 1% gaseous nitric oxide and 20% oxygen in nitrogen, or placebo (i.e., nitrogen) at a fixed flow of 1 liter per minute for 40 minutes each day for each of three consecutive days, Gas entered the boot-like enclosure near the toe region with passive diffusion from the enclosure into a well-ventilated examination room. Each foot of each patient was fitted with an air-tight, ankle-high covering […] On days 1, 3 and 12, each patient was assessed by a podiatrist blinded to the patient's treatment group and given a clinical symptom severity score ranging from 0 to 64.

The next series has as its system mild tinea pedis. The experiment in a line: Single-site clinical trial of gaseous nitric oxide in mild tinea pedis (Example 10). Format: in vivo, human. The settings on record: 1% gaseous nitric oxide in nitrogen, 10 patients, FIG. 14. How it is done: To evaluate the effectiveness of gaseous nitric oxide treatment against mild tinea pedis, a single-site clinical trial treating 10 human patients with mild tinea pedis was conducted. […] The foot of each patient was fitted with a flexible, plastic boot-like enclosure that was sealed at the mid-calf (see, for example, FIG. 19) and the foot was bathed with 1% gaseous nitric oxide in nitrogen at a fixed flow of 1 liter per minute for a total of 2 hours divided over 5 treatment days. Gas entered the boot-like enclosure near the toe region with passive diffusion from the enclosure into a well-ventilated examination room. On day 1, patients were treated for 10 minutes. On day 2, patients were treated for 20 minutes. On each of days 3, 4 and 5, patients were treated for 30 minutes. On days 0, 1, 2, 3, 4, 5 and 12, each patient was assessed by a podiatrist blinded to the patient's treatment group and given a clinical symptom severity score ranging from 0 to 64. The clinical symptom severity score is determined by scoring each of 8 categories (i.e., fissures/cracks, yellow crusting (ruptured blisters), maceration (white moist skin), pruritus (itching), scaling, erythema, vesicles/blisters and burning) on an 8-point scale (i.e., 0=absent, 1-2 mild, 3-5 moderate and 6-8 severe). […]

Setting [5] is: 30 minute exposure interval, 10,000 ppm nitric oxide.

With `[N]=O` [nitric oxide], in series [1] (10,000 ppm nitric oxide, p<0.05, FIG. 10), the “amount of total bacteria in biopsies taken from the center of the wounds” value was “significant decrease”. Also, the “average decrease of total bacteria in center biopsies, compared with nitric oxide in combination with oxygen” value in series [1] (pig, in vivo) was “smaller decrease”. In addition, in series [2] (setting [5]), the “ovicidal activity on aged eggs (6-8 days old)” value is on record as “not ovicidal” and the lice killed result is “did not kill any”. The lice killed entry in series [2] (10 minute exposure interval, 10,000 ppm nitric oxide) is given as “did not kill any”. The egg hatchability entry in series [2] (aged eggs (6-8 days old), 30 minute exposure interval, compared with untreated control eggs) was “not different from untreated control eggs”. Besides, the “time for half of the nitric oxide to react to become nitric dioxide” value in series [3] is on record as “about 3.5 minutes”. In addition, the “clinical symptom severity score on day 3 compared with day 1” value in series [4] (40 minutes each day for three days, all patients treated) is listed as “lower on day 3 than on day 1”. Further, the “clinical symptom severity score on day 12 compared with day 3” value in series [4] (40 minutes each day for three days, most patients treated) is given as “lower clinical symptom severity score on day 12 than on day 3”. The “patients with interdigital tinea who reached the primary clinical endpoint score of ≦8” value in series [4] (of the 13 patients with interdigital tinea) was found to be 8 patients. Also, the “average clinical symptom severity score (0 to 64) during treatment” value with mild tinea pedis (1 liter per minute, 2 hours over 5 treatment days) is “began to decrease on the second day of treatment and continued to decrease until the fifth day of treatment”. In the series with mild tinea pedis, the “average clinical symptom severity score on day 12, seven days after the last treatment” value was “remained as low as it was on day 5”.

The values above are taken from patent US20110245759A1, “Methods of Treating An Infection with Nitric Oxide” (NITRIC BIOTHERAPEUTICS, INC., priority 2008, published 2011).
